What was measured:
Assay type in all cases: in vivo
daisy (Bellis perennis) = assay: Example 11 field test, daisy in lawn
Procedure: (§1) Killex® (Green Cross, Ontario, Canada) is a commonly used selective lawn herbicide and was included in several field tests as a standard. Killex contains 2,4-D (9.5%), mecoprop (5%) and dicamba (0.9%). The product was diluted 6 ml into 1 L of water solution and applied at rate of 200 ml/m^2, as per label instructions.
This test investigated the effect of FeHEDTA and a mixture of FeEDDS and FeMGDA on daisy (Bellis perennis), dandelion (Taraxacum officinale) and a turf bentgrass (Agrostis sp.). The chelating agents were used at one and a half times the molar amount of iron. The FeHEDTA solutions contained 0.2% iron (35.8 mM). The commercially prepared FeHEDTA product from the Monterey Chemical Company (CA, USA) was used as a standard. The (FeEDDS+FeMGDA) solutions contained 0.4% iron (71.6 mM) and the same molar amount of EDDS and MGDA. The solutions were made from NaEDDS (Octaquest E30, Octel) and NaMGDA (Trilon M liquid, BASF, Germany). Ammonium sulfate was added at a concentration of 1%. Killex (Solaris ON, Canada) was diluted and applied as per label instructions of 6 ml/L applied at 200 ml/m^2.
The daisy (0.25 m^2) and dandelion (0.5 m^2) test plots were in different areas of the bentgrass field. The dandelions were large, averaging 30 cm in diameter. The daisy patches were between 10 and 20 cm in diameter. The plants were sprayed weekly 4 times.

grass [1] = assay: Example 2 field test of FeEDDS and FeHEDTA at pH 3 and 7, grass; conditions: in vivo
Procedure: The following non-limiting examples serve to further describe the invention. Unless otherwise specified, all of the iron solutions were made using the same molar concentration of iron ion as chelating agent. All of the outside tests were done on areas of mixed grass and dandelions that were at least 2 months old. For the greenhouse tests, dandelions were grown in a commercial greenhouse mix, using supplemental lighting and heating. Each plant was grown in a 2¼ inch pot to a minimum diameter of 20 cm. All of the solutions were sprayed onto the plants at a rate of 100 ml/m^2. The ferrous sulfate formulations that were used in examples 1, 2, 8 and 9 contained 1% iron (180 mM), 18 mM EDTA, 1% citric acid and 0.5% urea. In all of the examples, the amount of iron is identified in brackets as the percent iron on a weight basis.
All plant damage was assessed using a qualitative rating scale from 0 to 9.
The FeEDDS and FeHEDTA solutions contained 0.2% Fe^+3 (35.8 mM). The ferrous sulfate contained 1% Fe^+2 (179.1 mM). The solutions were sprayed at a rate of 0.1 L/m^2 onto 2 plots of 0.5 m^2 of mixed grass and dandelions. Observations were made 4 days after spraying.

[2] = system: hairy cat's ear (Hypochoeris radicata); assay: Example 13 field test, hairy cat's ear
Procedure: as §1
(§2) This test evaluated FeEDDS (0.4% Fe^+3) and FeHEDTA (0.2% Fe^+3) for controlling the weed hairy cat's ear (Hypochoeris radicata), also known as “false dandelion”, grown in areas of mixed grass and Hypochoeris. The iron solutions were sprayed at a rate of 100 ml/m^2 to 1.0 m^2 plots. The iron treatments were resprayed after 7 and 14 days. Killex (Solaris ON, Canada) was diluted and applied once as per label instructions of 6 ml /L applied at 200 ml/m^2.

white clover = assay: Example 17 iron chelates with Killex, white clover
Procedure: Plants were fertilized with an all purpose water-soluble fertilizer mix of 20-20-20 (N-P-K; Plant-Prod®) as needed. All broadleaf weeds were grown individually in a 2¼-inch pot until they were a suitable size for herbicide tests (actual weed size is reported in examples below). Perennial ryegrass was also grown in 2¼-inch pots, however many grass seeds were sown in the pot to simulate a small section of turf. Grass plants were continually trimmed to a height of 4 cm, simulating that of a homeowner's lawn. For field tests, plots ¼ m^2 in size were marked out in areas containing the targeted broadleaf weed species growing in turf grass. Plots were continually mowed to simulate a homeowner's lawn. […] In all of the examples, the amounts of the various herbicide components are identified as a percent on a weight basis.
Killex® (Scotts Canada, Ltd., Ontario, Canada) is a commonly used selective lawn herbicide and was used as the commercial herbicide for herbicide combinations. The labeled dilution and application rates for Killex® are 6 ml into 1 L of solution (0.6%) applied at 200 ml/m^2.
All visual plant damage assessments were made using a quantitative rating scale; percent control relative to the untreated check (0=no effect; 100=plant death).
Materials and Methods: This trial was conducted in the greenhouse. Nine pots of white clover and 10 pots of perennial ryegrass were selected for each treatment. Herbicidal solutions were prepared using deionized water. The treatments were applied using a handheld trigger sprayer at 200 ml/m^2. All treatments were applied once. Phytotoxicity (%) was assessed 4, 7, and 14 days after application (A4, A7, and A14).

grass [3] = assay: Example 13 field test, grass
Procedure: as §1, §2

O=C([O-])CN(CCO)CCN(CC(=O)[O-])CC(=O)[O-].[Fe+3] [FeHEDTA]
Plot Area Covered by Daisy Plants (%) (daisy (Bellis perennis); day 0 (start of test)): 60%
Daisy Necrosis (%) (daisy (Bellis perennis); day 2): 20%
Daisy Necrosis (%) (daisy (Bellis perennis); day 10): 95%
Plot Area Covered by Daisy Plants (%) (daisy (Bellis perennis); day 13, sprayed weekly 4 times): 1%
Daisy Necrosis (%) (daisy (Bellis perennis); day 16): 98%
Plot Area Covered by Daisy Plants (%) (daisy (Bellis perennis); day 21): 2%
Daisy Necrosis (%) (daisy (Bellis perennis); day 23): 98%
Plot Area Covered by Daisy Plants (%) (daisy (Bellis perennis); day 30): 0.5%
Grass Damage (0 to 9) (grass [1]; pH 2.6): 0.0 0 to 9
Grass Damage (0 to 9) (grass [1]; pH 7): 1.0 0 to 9
Area Covered by Hairy Cat's Ear (%) ([2]; day 0): 65%
Relative Cat's Ear Area (Start = 100%) ([2]; day 0): 100%
Area Covered by Hairy Cat's Ear (%) ([2]; day 6): 20%
Relative Cat's Ear Area (Start = 100%) ([2]; day 6): 31%
Area Covered by Hairy Cat's Ear (%) ([2]; day 8): 20%
Relative Cat's Ear Area (Start = 100%) ([2]; day 8): 31%
Area Covered by Hairy Cat's Ear (%) ([2]; day 14): 5%
Relative Cat's Ear Area (Start = 100%) ([2]; day 15): 8%
Area Covered by Hairy Cat's Ear (%) ([2]; day 18): 0%
Relative Cat's Ear Area (Start = 100%) ([2]; day 18): 0%
Phytotoxicity (%) against white clover (white clover; A4 = 4 days after application, 0=no effect, 100=plant death): 22%
Phytotoxicity (%) against white clover (white clover; A7 = 7 days after application): 19%
Phytotoxicity (%) against white clover (white clover; A14 = 14 days after application): 15%
Area Covered by Hairy Grass (%) (grass [3]; day 0): 15%
Relative Grass Area (Start = 100%) (grass [3]; day 0): 100%
Area Covered by Hairy Grass (%) (grass [3]; day 6): 47%
Relative Grass Area (Start = 100%) (grass [3]; day 6): 313%
Area Covered by Hairy Grass (%) (grass [3]; day 8): 40%
Relative Grass Area (Start = 100%) (grass [3]; day 8): 267%
Area Covered by Hairy Grass (%) (grass [3]; day 15): 50%
Relative Grass Area (Start = 100%) (grass [3]; day 15): 333%
Area Covered by Hairy Grass (%) (grass [3]; day 18): 46%
Relative Grass Area (Start = 100%) (grass [3]; day 18): 307%
